Measured values published in US9833433B1, “Compositions, methods of use, and methods of treatment” (priority 2013, dated 2017).

Experiments:
[1] = test system: spatial memory; assay: Morris water maze test (spatial memory); type: in vivo, mice; conditions: 10 mg/kg once a day for 7 days
Procedure: The classic Morris water maze and fear conditioning tests were performed to determine spatial and fear memory as described previously (Chen et al., 2012). The ‘open field’ test was conducted to detect the locomotor activity and the bar test was used to detect catalepsy (Egashira et al., 2007).
The classic Morris water maze test was used to determine spatial memory as described previously (Chen et al., 2012). A circular water tank (diameter 120 cm and 75 cm in high) was filled with water and the water was made opaque with non-toxic white paint. A round platform (diameter 15 cm) was hidden 1 cm beneath the surface of the water at the center of a given quadrant of the water tank. COX-2 KO and WT mice received training in the Morris water maze for 5 days without any treatments (naïve). […] For each trial, the mouse was released from the wall of the tank and allowed to search, find, and stand on the platform for 10 seconds within the 60-second trial period. […] During the probe test, the platform was removed from the pool, and the task performances were recorded for 60 seconds by a video-camera and the task performances, including swimming paths, speed, and time spent in each quadrant using an EthoVision video tracking system (Noldus). The time spent in each quadrant was analyzed.

[2] = test system: hippocampal LTP at CA3-CA1 and perforant path synapses; assay: Hippocampal LTP (fEPSP recordings in slices, theta-burst stimulation); type: in vivo, mice; conditions: 10 mg/kg once daily for 7 days; LTP 24 hr after last injection; CA3-CA1 and perforant path
Procedure: Hippocampal LTP both at CA3-CA1 and perforant path synapses were recorded in acutely hippocampal slices and induced by a theta-burst stimulation (TBS) as described previously (Hoffman et al., 2007).
Hippocampal slices were prepared from mice as described previously (Chen et al., 2002; Chen et al., 2012; Fan et al., 2010). Briefly, after decapitation, brains were rapidly removed and placed in cold oxygenated (95% O2, 5% CO2) artificial cerebrospinal fluid (ACSF) containing: 125.0 NaCl, 2.5 KCl, 1.0 MgCl2, 25.0 NaHCO3, 1.25 NaH2PO4, 2.0 CaCl2, 25.0 glucose, 3 pyruvic acid, and 1 ascorbic acid. Slices were cut at a thickness of 350-400 μm and transferred to a holding chamber in an incubator containing ACSF at 36° C. for 0.5 to 1 hour, and maintained in an incubator containing oxygenated ACSF at room temperature (˜22-24° C.) for >1.5 h before recordings. Slices were then transferred to a recording chamber where they were continuously perfused with 95% O2, 5% CO2-saturated standard ACSF at ˜32-34° C. Individual pyramidal and dentate granule neurons were viewed with an upright microscope (Olympus BX51WI) fitted with a 60× water-immersion objective and differential interference contrast (DIC) optics.
Field EPSP (fEPSP) recordings both at CA3-CA1 and perforant path synapses in response to stimuli at a frequency of 0.05 Hz were made using an Axoclamp-2B patch-clamp amplifier (Molecular Devices, CA) in bridge mode. Recording pipettes were pulled from borosilicate glass with a micropipette puller (Sutter Instrument), filled with artificial ACSF (2-4 MΩ). […]

[3] = test system: PSD-95; assay: Hippocampal PSD-95 expression (immunoblot); type: in vivo, mice; conditions: Δ^9-THC for 7 days
Procedure: Western blot assay was conducted using specific antibodies (Table S1) to determine expressions of COX-2, glutamate receptor subunits, PSD-95, G-protein subunits, phosphoproteins, BACE1 and neprilysin in hippocampal tissue and/or in cultured cells as described previously (Chen et al., 2012). Surface biotinylation assays were performed to determine surface expression of glutamate receptor subunits in hippocampal slices as described previously (Fan et al., 2010).

[4] = test system: synaptic release of glutamate; assay: Miniature spontaneous EPSCs (mEPSCs) in cultured hippocampal neurons; type: cell-based; conditions: Δ^9-THC 3 μM; recorded 24 hrs after treatment
[5] = test system: NF-κB p65 binding to ptgs2 promoter; type: cell-based; conditions: mixed culture; Δ^9-THC 30 μM
[6] = test system: COX-2; assay: Hippocampal COX-2 expression in mice (immunoblot); type: in vivo
[7] = test system: COX-2 mRNA; assay: COX-2 mRNA by qPCR in NG108-15 cells; type: cell-based; conditions: culture transfected with the control vector; 6 hrs after Δ^9-THC
[8] = test system: Aβ plaques; assay: Aβ plaques in 5XFAD APP transgenic mice (immunohistochemistry); type: in vivo; conditions: Δ^9-THC 3 mg/kg once daily for 4 weeks
Procedure: Immunohistochemical analyses were performed to determine total Aβ in coronal brain sections as described previously (Chen et al., 2012). 5XFAD APP transgenic mice that vehicle, or Δ^9-THC (3 mg/kg) or Δ^9-THC+Celebrex (1 mg/kg) for 4 weeks at 4 to 6 months of age were anesthetized with ketamine/Xylazine (200/10 mg/kg) and subsequently transcardially perfused with PBS followed by 4% paraformaldehyde in phosphate buffer. The brains were quickly removed from the skulls and fixed in 4% paraformaldehyde overnight, and then transferred into the PBS containing 30% sucrose until sinking to the bottom of the small glass jars. Cryostat sectioning was made on a freezing Vibratome at 40 μm and series sections (10 to 12 slices) were collected in 0.1M phosphate buffer. […] 4′-6-Diamidino-2-phenylindole (DAPI), a fluorescent stain that binds strongly to DNA, was used it to detect cell nuclei in the sections. The sections were then mounted on slides for immunofluorescence detection using a Zeiss fluorescence microscope.

SMILES: CCCCCc1cc(O)c2c(c1)OC(C)(C)[C@@H]1CCC(C)=C[C@@H]21 [Δ^9-THC, Δ^9-tetrahydrocannabinol]
- spatial memory and memory retention after repeated Δ^9-THC [1]: impaired spatial memory and memory retention
- hippocampal LTP after repeated Δ^9-THC exposure [2]: decreased hippocampal LTP
- PSD-95 expression [3]: reduced expression of PSD-95
- synaptic release of glutamate (mEPSCs) [4]: enhanced synaptic release of glutamate
- binding of NF-κB p65 to ptgs2 promoter positions −419 to −428 bp [5]: enhanced
- hippocampal COX-2 expression after cannabinoid injection ([6]; single i.p. injection, CP55,940 10 mg/kg, detected 4 hrs): dose- and time-dependent induction of COX-2 in the brain
- hippocampal COX-2 expression after repeated injections ([6]; Δ^9-THC 10 mg/kg i.p. once daily for 7 consecutive days, analyzed 24 hrs after last injection): steadily elevated
- COX-2 mRNA expression in NG108-15 cells [7]: increased expression of COX-2 mRNA
- numbers of Aβ plaques ([8]; absence of Celebrex): significantly reduced
- numbers of Aβ plaques ([8]; presence of Celebrex 1 mg/kg): significantly reduced
